Experimental findings from US9931428B2, “Ophthalmic compositions” (priority 2011, dated 2018) are described below.

What all share (test): BS EN1276 quantitative suspension test, bactericidal activity, dirty conditions
Holding throughout (assay type): cell-based
What all share (settings): aqueous solution of test article; EN 1276 dirty conditions

For experiment [1], the system named is Staphylococcus aureus NCTC 6571.
Experiment [2] relates to Pseudomonas aeruginosa ATCC 15442.
The next experiment deals with Escherichia coli 11867.
The test system of another experiment is Bacillus subtillus 10262.

On to `O=C(O)CC(O)(CC(=O)O)C(=O)O` [Citric acid, citric acid], for which the Microbial reduction is reported as 3.02 × 10^2 in experiment [1], 2.69 × 10^3 in experiment [2], 6.46 × 10^2 in the experiment with Escherichia coli 11867 and 2.29 × 10^3 with Bacillus subtillus 10262.
